pEC50, pIC50: −log10 of the molar value. The source made the active and inactive calls. The rule behind the calls is not given here.
How the values were obtained:
SK-OV-3 = assay: Antiproliferative activity against human SKOV3 cells after 72 hrs by sulforhodamine B assay; assay type: functional, cell-based; conditions: SK-OV-3, 72 h
[1] = Antiproliferative activity against human wild-type Hela-beta3 cells after 72 hrs by sulforhodamine B assay; assay type: functional
[2] = molecular target: Epidermal growth factor receptor (Homo sapiens, UniProt P00533); assay type: cell-based
[3] = molecular target: T1, Vascular endothelial growth factor receptor 2 (Homo sapiens, UniProt P35968); assay type: cell-based
[4] = molecular target: T2, Platelet-derived growth factor receptor beta (Homo sapiens, UniProt P09619); assay: Inhibition of PDGF-BB-induced PDGFRbeta activation in human SH-SY5Y cells pretreated for 60 mins followed by PDGF-BB addition and measured after 10 mins by ELISA; assay type: cell-based
A10 = assay: Induction of microtubule depolymerization in rat A10 cells after 18 hrs by indirect immunofluorescence method; assay type: functional, cell-based; conditions: A10, 18 h
A-431 = assay: Cytotoxicity against human A431 cells over-expressing EGFR; assay type: functional, cell-based
Chorioallantoic membrane = assay: Antiangiogenic activity in Leghorn chicken embryo chorioallantoic membrane after 40 hrs by microscopic analysis; assay type: functional, tissue-based; conditions: Gallus gallus
[5] = molecular target: T1, Vascular endothelial growth factor receptor 2; assay: Potency index, ratio of sunitinib IC50 to test compound IC50 for VEGF-induced VEGFR2 activation in human U251 cells; assay type: cell-based
[6] = molecular target: T2, Platelet-derived growth factor receptor beta; assay: Potency index, ratio of sunitinib IC50 to test compound IC50 for PDGF-BB-induced PDGFRbeta activation in human SH-SY5Y cells; assay type: cell-based
Mus musculus [7] = assay: Toxicity in athymic nude mouse assessed as survival at 12.5 to 50 mg/kg, po administered as single dose; assay type: organism-based; conditions: in vivo
Mus musculus [8] = assay: Toxicity in athymic nude mouse assessed as death at 100 mg/kg, po administered as single dose measured after 4 days; assay type: organism-based; conditions: in vivo, 96 h
Mus musculus [9] = assay: Toxicity in athymic nude mouse assessed as death at 250 to 500 mg/kg, po administered as single dose measured after 1 day; assay type: organism-based; conditions: in vivo, 24 h
A498 [10] = assay: Antitumor activity against human A498 cells xenografted in athymic nude mouse assessed as reduction in tumor volume at 25 mg/kg, ip qd for 19 days measured post last dose up to 40 days; assay type: functional; design: scale not given: the % may be the effect or the level left
A498 [11] = assay: Antitumor activity against human A498 cells xenografted in athymic nude mouse assessed as reduction in tumor volume at 25 mg/kg, ip q2d for 19 days measured post last dose up to 40 days; assay type: functional; design: scale not given: the % may be the effect or the level left
A498 [12] = assay: Antitumor activity against human A498 cells xenografted in athymic nude mouse assessed as reduction in tumor volume at 25 mg/kg, ip q3d for 19 days measured post last dose up to 40 days; assay type: functional; design: scale not given: the % may be the effect or the level left
Mus musculus [13] = assay: Toxicity in athymic nude mouse xenografted with human A498 cells assessed as body weight at 25 mg/kg, ip qd for 19 days measured post last dose relative to control; assay type: organism-based; conditions: in vivo, 456 h
Mus musculus [14] = assay: Toxicity in athymic nude mouse xenografted with human A498 cells assessed as body weight at 25 mg/kg, ip q2d for 19 days measured post last dose relative to control; assay type: organism-based; conditions: in vivo, 456 h
Mus musculus [15] = assay: Toxicity in athymic nude mouse xenografted with human A498 cells assessed as body weight at 25 mg/kg, ip q3d for 19 days measured post last dose relative to control; assay type: organism-based; conditions: in vivo, 456 h
NCI-H522 [16] = assay: Antitumor activity against human NCI-H522 cells xenografted in athymic nude mouse; assay type: functional, cell-based
COLO 205 [17] = assay: Antitumor activity against human COLO205 cells xenografted in athymic nude mouse; assay type: functional, cell-based
NCI-H23 [18] = assay: Antitumor activity against human NCI-H23 cells xenografted in sc dosed mouse assessed as reduction in cell viability administered daily for 4 days starting from 3 to 4 days post implantation measured post last dose by MTT based in-vivo hollow fiber assay; assay type: functional, organism-based
NCI-H522 [19] = assay: Antitumor activity against human NCI-H522 cells xenografted in sc dosed mouse assessed as reduction in cell viability administered daily for 4 days starting from 3 to 4 days post implantation measured post last dose by MTT based in-vivo hollow fiber assay; assay type: functional, organism-based
MDA-MB-231 [20] = assay: Antitumor activity against human MDA-MB-231 cells xenografted in sc dosed mouse assessed as reduction in cell viability administered daily for 4 days starting from 3 to 4 days post implantation measured post last dose by MTT based in-vivo hollow fiber assay; assay type: functional, organism-based
SW-620 [21] = assay: Antitumor activity against human SW620 cells xenografted in sc dosed mouse assessed as reduction in cell viability administered daily for 4 days starting from 3 to 4 days post implantation measured post last dose by MTT based in-vivo hollow fiber assay; assay type: functional, organism-based
COLO 205 [22] = assay: Antitumor activity against human COLO205 cells xenografted in sc dosed mouse assessed as reduction in cell viability administered daily for 4 days starting from 3 to 4 days post implantation measured post last dose by MTT based in-vivo hollow fiber assay; assay type: functional, organism-based
MDA-MB-435 [23] = assay: Antitumor activity against human MDA-MB-435 cells xenografted in sc dosed mouse assessed as reduction in cell viability administered daily for 4 days starting from 3 to 4 days post implantation measured post last dose by MTT based in-vivo hollow fiber assay; assay type: functional, organism-based
Homo sapiens [24] = assay: Antitumor activity against human LOX cells xenografted in sc dosed mouse assessed as reduction in cell viability administered daily for 4 days starting from 3 to 4 days post implantation measured post last dose by MTT based in-vivo hollow fiber assay; assay type: functional, organism-based
UACC-62 [25] = assay: Antitumor activity against human UACC62 cells xenografted in sc dosed mouse assessed as reduction in cell viability administered daily for 4 days starting from 3 to 4 days post implantation measured post last dose by MTT based in-vivo hollow fiber assay; assay type: functional, organism-based
OVCAR-3 [26] = assay: Antitumor activity against human OVCAR3 cells xenografted in sc dosed mouse assessed as reduction in cell viability administered daily for 4 days starting from 3 to 4 days post implantation measured post last dose by MTT based in-vivo hollow fiber assay; assay type: functional, organism-based
OVCAR-5 [27] = assay: Antitumor activity against human OVCAR5 cells xenografted in sc dosed mouse assessed as reduction in cell viability administered daily for 4 days starting from 3 to 4 days post implantation measured post last dose by MTT based in-vivo hollow fiber assay; assay type: functional, organism-based
U-251 [28] = assay: Antitumor activity against human U251 cells xenografted in sc dosed mouse assessed as reduction in cell viability administered daily for 4 days starting from 3 to 4 days post implantation measured post last dose by MTT based in-vivo hollow fiber assay; assay type: functional, organism-based
SF-295 [29] = assay: Antitumor activity against human SF295 cells xenografted in sc dosed mouse assessed as reduction in cell viability administered daily for 4 days starting from 3 to 4 days post implantation measured post last dose by MTT based in-vivo hollow fiber assay; assay type: functional, organism-based
NCI-H23 [30] = assay: Antitumor activity against human NCI-H23 cells xenografted in ip dosed mouse assessed as reduction in cell viability administered daily for 4 days starting from 3 to 4 days post implantation measured post last dose by MTT based in-vivo hollow fiber assay; assay type: functional, organism-based
NCI-H522 [31] = assay: Antitumor activity against human NCI-H522 cells xenografted in ip dosed mouse assessed as reduction in cell viability administered daily for 4 days starting from 3 to 4 days post implantation measured post last dose by MTT based in-vivo hollow fiber assay; assay type: functional, organism-based
MDA-MB-231 [32] = assay: Antitumor activity against human MDA-MB-231 cells xenografted in ip dosed mouse assessed as reduction in cell viability administered daily for 4 days starting from 3 to 4 days post implantation measured post last dose by MTT based in-vivo hollow fiber assay; assay type: functional, organism-based
SW-620 [33] = assay: Antitumor activity against human SW620 cells xenografted in ip dosed mouse assessed as reduction in cell viability administered daily for 4 days starting from 3 to 4 days post implantation measured post last dose by MTT based in-vivo hollow fiber assay; assay type: functional, organism-based
COLO 205 [34] = assay: Antitumor activity against human COLO205 cells xenografted in ip dosed mouse assessed as reduction in cell viability administered daily for 4 days starting from 3 to 4 days post implantation measured post last dose by MTT based in-vivo hollow fiber assay; assay type: functional, organism-based
MDA-MB-435 [35] = assay: Antitumor activity against human MDA-MB-435 cells xenografted in ip dosed mouse assessed as reduction in cell viability administered daily for 4 days starting from 3 to 4 days post implantation measured post last dose by MTT based in-vivo hollow fiber assay; assay type: functional, organism-based
Homo sapiens [36] = assay: Antitumor activity against human LOX cells xenografted in ip dosed mouse assessed as reduction in cell viability administered daily for 4 days starting from 3 to 4 days post implantation measured post last dose by MTT based in-vivo hollow fiber assay; assay type: functional, organism-based
UACC-62 [37] = assay: Antitumor activity against human UACC62 cells xenografted in ip dosed mouse assessed as reduction in cell viability administered daily for 4 days starting from 3 to 4 days post implantation measured post last dose by MTT based in-vivo hollow fiber assay; assay type: functional, organism-based
OVCAR-3 [38] = assay: Antitumor activity against human OVCAR3 cells xenografted in ip dosed mouse assessed as reduction in cell viability administered daily for 4 days starting from 3 to 4 days post implantation measured post last dose by MTT based in-vivo hollow fiber assay; assay type: functional, organism-based
OVCAR-5 [39] = assay: Antitumor activity against human OVCAR5 cells xenografted in ip dosed mouse assessed as reduction in cell viability administered daily for 4 days starting from 3 to 4 days post implantation measured post last dose by MTT based in-vivo hollow fiber assay; assay type: functional, organism-based
U-251 [40] = assay: Antitumor activity against human U251 cells xenografted in ip dosed mouse assessed as reduction in cell viability administered daily for 4 days starting from 3 to 4 days post implantation measured post last dose by MTT based in-vivo hollow fiber assay; assay type: functional, organism-based
SF-295 [41] = assay: Antitumor activity against human SF295 cells xenografted in ip dosed mouse assessed as reduction in cell viability administered daily for 4 days starting from 3 to 4 days post implantation measured post last dose by MTT based in-vivo hollow fiber assay; assay type: functional, organism-based
MDA-MB-435 [42] = assay: Antiproliferative activity against human MDA-MB-435 cells after 72 hrs by sulforhodamine B assay; assay type: functional, cell-based; conditions: MDA-MB-435, 72 h
[43] = Antiproliferative activity against human SKOV3-MDR1-M6/6 cells after 72 hrs by sulforhodamine B assay; assay type: functional; conditions: SKOV3-MDR1-M6/6, 72 h
[44] = Resistance index, ratio of IC50 for human SKOV3-MDR1-M6/6 cells to IC50 for human SKOV3 cells; assay type: functional
HeLa = assay: Antiproliferative activity against human HeLa cells after 72 hrs by sulforhodamine B assay; assay type: functional, cell-based
[45] = Resistance index, ratio of IC50 for human HeLa cells to IC50 for human wild-type Hela-beta3 cells; assay type: functional

Epidermal growth factor receptor, sequence (P00533 whole entry): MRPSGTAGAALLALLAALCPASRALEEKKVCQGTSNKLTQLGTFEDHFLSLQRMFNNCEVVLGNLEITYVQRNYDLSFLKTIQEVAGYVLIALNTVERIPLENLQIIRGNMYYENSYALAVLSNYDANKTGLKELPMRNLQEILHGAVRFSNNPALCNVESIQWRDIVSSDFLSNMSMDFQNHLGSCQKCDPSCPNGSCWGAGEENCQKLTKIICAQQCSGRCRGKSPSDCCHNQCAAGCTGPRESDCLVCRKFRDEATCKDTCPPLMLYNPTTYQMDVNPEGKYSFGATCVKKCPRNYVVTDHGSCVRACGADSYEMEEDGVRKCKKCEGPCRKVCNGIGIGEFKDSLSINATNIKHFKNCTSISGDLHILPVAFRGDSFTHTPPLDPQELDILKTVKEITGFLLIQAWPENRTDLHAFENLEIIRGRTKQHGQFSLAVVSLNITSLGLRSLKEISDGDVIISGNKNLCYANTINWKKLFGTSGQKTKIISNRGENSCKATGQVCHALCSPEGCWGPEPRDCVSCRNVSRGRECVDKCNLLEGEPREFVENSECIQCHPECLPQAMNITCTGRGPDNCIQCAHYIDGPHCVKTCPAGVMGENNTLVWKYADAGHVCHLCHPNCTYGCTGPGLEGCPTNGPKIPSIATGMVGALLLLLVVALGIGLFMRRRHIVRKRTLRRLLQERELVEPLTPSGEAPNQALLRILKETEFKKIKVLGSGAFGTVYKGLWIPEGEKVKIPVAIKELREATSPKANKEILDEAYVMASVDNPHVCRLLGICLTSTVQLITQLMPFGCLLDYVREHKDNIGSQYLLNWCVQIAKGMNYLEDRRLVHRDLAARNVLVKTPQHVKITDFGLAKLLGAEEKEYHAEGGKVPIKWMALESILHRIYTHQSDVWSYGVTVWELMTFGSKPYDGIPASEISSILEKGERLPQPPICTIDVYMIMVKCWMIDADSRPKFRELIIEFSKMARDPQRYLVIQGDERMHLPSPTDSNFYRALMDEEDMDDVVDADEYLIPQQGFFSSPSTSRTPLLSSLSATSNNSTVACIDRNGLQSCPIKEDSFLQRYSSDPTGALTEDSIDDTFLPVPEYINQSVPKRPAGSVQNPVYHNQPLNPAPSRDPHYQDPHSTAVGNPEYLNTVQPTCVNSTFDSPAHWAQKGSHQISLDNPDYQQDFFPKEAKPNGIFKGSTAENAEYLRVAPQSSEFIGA
T1 sequence (P35968 whole entry): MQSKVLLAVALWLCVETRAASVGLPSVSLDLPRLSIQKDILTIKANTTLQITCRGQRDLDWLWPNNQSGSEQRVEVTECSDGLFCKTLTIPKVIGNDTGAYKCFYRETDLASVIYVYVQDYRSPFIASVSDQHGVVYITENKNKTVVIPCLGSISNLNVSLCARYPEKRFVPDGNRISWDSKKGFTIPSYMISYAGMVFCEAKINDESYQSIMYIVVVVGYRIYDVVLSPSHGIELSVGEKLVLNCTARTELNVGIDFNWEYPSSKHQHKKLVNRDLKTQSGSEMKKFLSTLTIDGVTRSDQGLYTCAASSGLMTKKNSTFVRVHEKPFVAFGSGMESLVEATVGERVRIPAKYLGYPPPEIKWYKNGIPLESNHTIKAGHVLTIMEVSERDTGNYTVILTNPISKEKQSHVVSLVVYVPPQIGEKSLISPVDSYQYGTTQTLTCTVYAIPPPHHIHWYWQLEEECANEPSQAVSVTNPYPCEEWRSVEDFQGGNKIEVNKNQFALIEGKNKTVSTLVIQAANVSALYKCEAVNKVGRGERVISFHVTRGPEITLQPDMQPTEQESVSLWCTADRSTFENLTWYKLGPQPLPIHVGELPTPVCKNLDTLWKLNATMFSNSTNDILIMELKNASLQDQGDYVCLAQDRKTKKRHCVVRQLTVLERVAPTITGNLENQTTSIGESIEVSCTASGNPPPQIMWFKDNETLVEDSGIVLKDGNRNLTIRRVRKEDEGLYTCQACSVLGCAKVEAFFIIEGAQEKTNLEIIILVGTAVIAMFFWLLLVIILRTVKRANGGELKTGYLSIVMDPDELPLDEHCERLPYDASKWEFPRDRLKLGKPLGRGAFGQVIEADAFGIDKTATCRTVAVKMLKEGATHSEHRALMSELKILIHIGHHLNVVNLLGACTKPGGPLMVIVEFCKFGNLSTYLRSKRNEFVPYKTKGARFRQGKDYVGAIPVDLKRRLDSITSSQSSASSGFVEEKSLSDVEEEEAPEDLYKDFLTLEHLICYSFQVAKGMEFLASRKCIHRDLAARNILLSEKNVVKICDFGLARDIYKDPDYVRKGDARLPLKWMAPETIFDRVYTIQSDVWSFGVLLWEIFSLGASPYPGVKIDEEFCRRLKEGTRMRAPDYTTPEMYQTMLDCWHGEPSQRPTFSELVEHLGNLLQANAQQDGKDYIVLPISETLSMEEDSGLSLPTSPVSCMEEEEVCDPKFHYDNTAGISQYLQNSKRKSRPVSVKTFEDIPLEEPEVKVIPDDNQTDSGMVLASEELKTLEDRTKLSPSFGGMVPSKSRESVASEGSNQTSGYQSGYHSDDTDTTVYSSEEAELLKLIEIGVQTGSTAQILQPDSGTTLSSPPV
T2 sequence (P09619 whole entry): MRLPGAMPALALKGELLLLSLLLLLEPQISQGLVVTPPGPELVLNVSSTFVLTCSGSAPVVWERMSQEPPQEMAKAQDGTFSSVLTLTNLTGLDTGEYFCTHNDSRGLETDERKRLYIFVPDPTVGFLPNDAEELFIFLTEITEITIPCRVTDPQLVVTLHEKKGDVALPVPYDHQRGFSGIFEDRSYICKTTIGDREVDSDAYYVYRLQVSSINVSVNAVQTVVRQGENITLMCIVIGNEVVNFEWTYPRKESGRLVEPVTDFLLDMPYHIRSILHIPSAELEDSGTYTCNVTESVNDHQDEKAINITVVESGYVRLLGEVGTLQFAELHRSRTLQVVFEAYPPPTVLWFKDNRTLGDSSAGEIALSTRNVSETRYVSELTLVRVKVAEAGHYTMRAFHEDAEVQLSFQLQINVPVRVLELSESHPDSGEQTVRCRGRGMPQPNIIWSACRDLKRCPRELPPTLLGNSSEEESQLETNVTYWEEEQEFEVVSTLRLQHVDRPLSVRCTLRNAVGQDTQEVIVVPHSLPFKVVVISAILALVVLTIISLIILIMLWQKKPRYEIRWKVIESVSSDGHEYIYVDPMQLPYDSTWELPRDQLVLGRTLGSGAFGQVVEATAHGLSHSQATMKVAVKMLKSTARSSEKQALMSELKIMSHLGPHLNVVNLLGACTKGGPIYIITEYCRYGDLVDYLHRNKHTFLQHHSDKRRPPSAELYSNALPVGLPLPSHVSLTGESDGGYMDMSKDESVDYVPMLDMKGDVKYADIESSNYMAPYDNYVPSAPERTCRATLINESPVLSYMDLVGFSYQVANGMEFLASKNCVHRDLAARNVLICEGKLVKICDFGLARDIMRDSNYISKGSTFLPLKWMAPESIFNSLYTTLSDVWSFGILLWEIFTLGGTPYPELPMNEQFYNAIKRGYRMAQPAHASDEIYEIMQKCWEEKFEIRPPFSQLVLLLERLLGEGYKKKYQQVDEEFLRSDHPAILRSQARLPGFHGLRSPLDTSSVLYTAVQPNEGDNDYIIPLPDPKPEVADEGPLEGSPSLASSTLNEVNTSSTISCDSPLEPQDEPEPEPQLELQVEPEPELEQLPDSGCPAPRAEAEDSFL

CC(=O)O[C@H]1C(=O)[C@@]2(C)[C@H]([C@H](OC(=O)c3ccccc3)[C@]3(O)C[C@H](OC(=O)[C@H](O)[C@@H](NC(=O)c4ccccc4)c4ccccc4)C(C)=C1C3(C)C)[C@]1(OC(C)=O)CO[C@@H]1C[C@@H]2O [PACLITAXEL]
pIC50 (SK-OV-3): 8.30 | pIC50 [1]: 7.62

CNc1ccc(Nc2ncnc3occ(C)c23)cc1
pIC50 [2]: < 6.70 | pIC50 [3]: < 6.70 | pIC50 [4]: < 6.70 | pEC50 (A10): < 5.00

COc1ccc(N(C)c2ncnc3occ(C)c23)cc1
pIC50 [2]: 7.81 | pIC50 [3]: 8.03 | pIC50 [4]: 7.91 | pIC50 (A-431): 8.29 | pIC50 (Chorioallantoic membrane): 7.10 | Ratio IC50 [5]: 2 | Ratio IC50 [6]: 7 | MSD (Mus musculus [7]): 15 days | Activity (Mus musculus [8]): Toxic | Activity (Mus musculus [9]): Toxic | Activity (A498 [10]): 25 - 50% | Activity (A498 [11]): 25 - 50% | Activity (A498 [12]): 25 - 50% | T/C (Mus musculus [13]): 47% | T/C (Mus musculus [14]): 38% | T/C (Mus musculus [15]): 71% | Activity (NCI-H522 [16]): inactive | Activity (COLO 205 [17]): inactive | Activity (NCI-H23 [18]): Active | Activity (NCI-H522 [19]): Active | Activity (MDA-MB-231 [20]): Active | Activity (SW-620 [21]): Active | Activity (COLO 205 [22]): Active | Activity (MDA-MB-435 [23]): Active | Activity (Homo sapiens [24]): Active | Activity (UACC-62 [25]): Active | Activity (OVCAR-3 [26]): Active | Activity (OVCAR-5 [27]): Active | Activity (U-251 [28]): Active | Activity (SF-295 [29]): Active | Activity (NCI-H23 [30]): Active | Activity (NCI-H522 [31]): Active | Activity (MDA-MB-231 [32]): Active | Activity (SW-620 [33]): Active | Activity (COLO 205 [34]): Active | Activity (MDA-MB-435 [35]): Active | Activity (Homo sapiens [36]): Active | Activity (UACC-62 [37]): Active | Activity (OVCAR-3 [38]): Active | Activity (OVCAR-5 [39]): Active | Activity (U-251 [40]): Active | Activity (SF-295 [41]): Active

CNc1ccc(N(C)c2ncnc3occ(C)c23)cc1
pIC50 [2]: 8.19 | pIC50 [3]: 7.90 | pIC50 [4]: 7.24 | pIC50 (A-431): 8.54 | pIC50 (Chorioallantoic membrane): 6.15 | pEC50 (A10): 6.62 | pIC50 (MDA-MB-435 [42]): 7.13 | pIC50 (SK-OV-3): 7.02 | pIC50 [43]: 7.00 | Ratio IC50 [44]: 1.1 | pIC50 (HeLa): 7.13 | pIC50 [1]: 7.07 | Ratio IC50 [45]: 1.2
